Data taken from patent US20140056834A1, “COSMETIC COMPOSITION COMPRISING CHRYSOPHANOL AS ACTIVE INGREDIENT FOR SKIN WHITENING” (PUKYONG NATIONAL UNIVERSITY INDUSTRY-UNIVERSITY C, priority 2012, published 2014).

Tests used:
B16F1 cells [1] = test: Determination of cytotoxicity by MTT method; format: cell-based, mouse; settings: 10 and 50 μM, 24 h incubation
Procedure: The mouse melanoma B16F1 cells were acquired from the American Type Culture Collection (ATCC, Manassas, Va.) and were cultured in Dulbecco's modification of eagle's medium (DMEM, GIBCO, New York, USA) containing 100 μg/ml penicillin-streptomycin, […] fetal bovine serum (FBS) and maintained at 37° C., 5% CO2. Cytotoxicity levels of the isolated chrysophanol compound from Microsporum sp. on B16F1 cells were measured using MTT (3-(4,5-dimethyl[…])-2,5-diphenyltetrazolium bromide) method. Briefly, B16F1 cells were cultured in 96-well plates at a density of 5×10^3 cells/well. After 24 h, cells were treated with different concentrations (10, 50, 100 μM) of chrysophanol compound. After the next 24 h of incubation, cells were washed two times with PBS and 100 μl of MTT solution (1 mg/ml) was added to each well. After next 4 h of incubation, MTT solution in each well was removed and then 100 μl of dimethyl-sulfoxide (DMSO) were added to solubilize the formazan salt. The optical density was measured at 540 nm by using UV microplate reader (Tecan Austria GmbH, Groedig, Austria). Relative cell viability was calculated compared to the non-treated blank group.

[2] = tested on: tyrosinase protein in mouse melanoma B16F1 cells; test: Tyrosinase protein expression by western blot analysis; format: cell-based; settings: α-MSH
Procedure: For the western blot analysis, B16F1 cells were treated with different concentrations of chrysophanol compound, added with α-MSH, incubated for a predetermined time, and then the cells were lysed with RIPA buffer (Sigma-Aldrich Corp., St. Louis, USA) and centrifuged. After the centrifugation, the same amount (15 μg) of protein in cell lysate supernatants were analyzed on 10% SDS-PAGE and proteins were blotted on an immuno-blot nitro-cellulose membrane and blocked with 5% BSA in TBS containing 0.1% Tween 20 (TBS-T) for at least 1 h and hybridized with the primary monoclonal antibodies (Santa Cruz Biotechnology Inc., CA, USA). All the primary monoclonal antibodies were diluted with TBS-T (1:1000). The protein bindings were detected using the secondary antibody conjugated to horseradish peroxidase and enhanced using chemiluminiscence ECL assay kit (Amersham Pharmacia Biosciences, England, UK) according to the manufacturer's instructions and imaged on a LAS-3000® Luminescent image analyzer (Fujifilm, Life Science, Tokyo, Japan). T

B16F1 cells [3] = test: Melanin content in α-MSH-stimulated B16F1 cells; format: cell-based, mouse; settings: α-MSH 100 nM, 72 h
Procedure: The melanin content was determined in accordance a procedure described previously (Hosoi et al., 1985) with slight modifications.
Briefly, B16F1 cells were seeded at a density of 2×10^4 cells per well in 24-well culture plates and then incubated for 24 h. Then, cells were treated with various concentrations ([…]) of chrysophanol. After 1 h, α-MSH (100 nM) was added and incubated for 72 h. Then, cells were washed twice with PBS and dissolved in 1 N NaOH by 30 min of boiling at 60° C. The cell lysates were centrifuged for 5 min at 5000 g and absorbance of the supernatant was measured at 405 nm.

mushroom tyrosinase = test: Mushroom tyrosinase assay (tyrosinase inhibitory activity); format: biochemical; settings: L-tyrosine substrate, different concentrations, 30 min at 37° C.
Procedure: The inhibitory effect on tyrosinase was measured using the spectrophotometric method, based on the hydroxylation of […] in mushroom tyrosinase assay.
A total of 10 μl of each chrysophanol with different concentrations and 20 μl of mushroom tyrosinase (1000 units/ml) in 50 mM phosphate buffer (pH 6.5) were added to 170 μl of an assay mixture containing a ratio of 10:10:9 of 1 mM L-tyrosine solution, 50 mM phosphate buffer (pH 6.5), and distilled water in a 96-well microplate. After 30 min of incubation at 37° C., the absorbance of the mixture was determined at 490 nm using a microplate reader (Tecan Austria GmbH, Austria).

In the case of `Cc1cc(O)c2c(c1)C(=O)c1cccc(O)c1C2=O` [chrysophanol], the “cytotoxicity (relative cell viability, MTT)” value (B16F1 cells [1]) is reported as “no cytotoxicity”, the tyrosinase protein expression ([2]; 20 μM) is reported as “significantly inhibited expression of tyrosinase protein” and the tyrosinase protein expression ([2]; different concentrations) is reported as “dose-dependent inhibition of tyrosinase protein expression”. The “melanin content compared with positive control kojic acid” value (B16F1 cells [3]; B16F1 cells, 50 μM) was “almost the same as that of kojic acid”, the melanin content (B16F1 cells [3]; B16F1 cells, 5, 10, 50 μm chrysophanol) was “decrease in melanin content in B16F1 cells by the treatment of chrysphanol in a dose-dependent manner” and the tyrosinase inhibitory activity (mushroom tyrosinase) was “tyrosinase inhibitory activity was observed by chrysophanol in a dose-dependent manner”.
